Data as given in patent publication US12673946B2, “Pyrimidin-4(3H)-one derivatives as TRPV4 antagonists” (RaQualia Pharma Inc., priority 2020, dated 2026).
pIC50: −log10 of the molar value.

Target: T1, human TRPV4 (Homo sapiens, UniProt Q9HBA0)
T1 construct: host or cells: tetracycline-inducible Flp-In T-REx 293 cells
Assay: Hypotonicity-induced Ca2+ influx (Fluo-4, FDSS)
Format: cell-based
Procedure, shortened: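 Flp-In T-REx 293 cells with tetracycline-induced human TRPV4, loaded with Fluo-4 for 60 min at 25 °C. Compound added 5 min before hypotonic mannitol/CaCl2 solution. Ca2+ signal recorded for 4.5 min on FDSS.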

[1] = Flp-In T-REx 293 cells expressing human TRPV4, examples listed under heading 'Human IC50<50 nM'
[2] = Flp-In T-REx 293 cells stably expressing human TRPV4, compounds listed by potency bin (<10 nM Tables 96-1/96-2, <3 nM Table 97)

T1 sequence (Q9HBA0 whole entry): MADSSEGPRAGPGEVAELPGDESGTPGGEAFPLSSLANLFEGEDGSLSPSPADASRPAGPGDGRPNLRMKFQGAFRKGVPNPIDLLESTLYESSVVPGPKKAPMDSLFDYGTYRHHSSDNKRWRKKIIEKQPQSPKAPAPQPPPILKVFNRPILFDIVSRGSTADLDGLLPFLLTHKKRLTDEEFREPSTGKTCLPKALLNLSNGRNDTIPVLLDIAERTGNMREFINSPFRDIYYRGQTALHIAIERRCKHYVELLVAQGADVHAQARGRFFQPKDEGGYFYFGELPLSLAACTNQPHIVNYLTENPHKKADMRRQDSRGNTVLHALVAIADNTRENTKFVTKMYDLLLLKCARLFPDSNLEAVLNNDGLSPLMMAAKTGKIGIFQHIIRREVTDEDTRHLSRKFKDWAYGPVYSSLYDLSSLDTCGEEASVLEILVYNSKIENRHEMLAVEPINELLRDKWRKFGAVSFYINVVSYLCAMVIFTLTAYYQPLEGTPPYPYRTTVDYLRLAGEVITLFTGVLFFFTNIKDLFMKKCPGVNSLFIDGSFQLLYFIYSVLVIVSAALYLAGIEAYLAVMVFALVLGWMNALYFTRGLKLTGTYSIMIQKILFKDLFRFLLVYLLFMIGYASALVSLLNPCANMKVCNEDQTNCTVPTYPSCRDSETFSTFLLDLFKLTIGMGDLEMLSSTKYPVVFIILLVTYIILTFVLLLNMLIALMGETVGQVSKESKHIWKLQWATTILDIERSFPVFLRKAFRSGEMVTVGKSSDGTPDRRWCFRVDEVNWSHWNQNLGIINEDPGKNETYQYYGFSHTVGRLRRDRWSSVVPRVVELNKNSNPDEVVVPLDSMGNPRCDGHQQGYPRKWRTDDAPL

Row | Structure (SMILES) | pIC50 [1] | pIC50 [2]
1 | CC(C)(C)c1cccc(-c2cccc([C@@H](O)C(=O)N3CCCc4nc(C5(c6cc(-c7ccccc7)cs6)CC5)[nH]c(=O)c4C3)c2)c1 [54-12] | > 7.30 | > 8.00
2 | O=C([C@H](O)c1cccc(-c2cccc(Cl)c2)c1)N1CCCc2nc(C3(c4cc(-c5ccccc5)cs4)CC3)[nH]c(=O)c2C1 [54-13] | > 7.30 | > 8.00
3 | O=C([C@H](O)c1cccc(-c2cccc(C(F)(F)F)c2)c1)N1CCCc2nc(C3(c4cc(-c5ccccc5)cs4)CC3)[nH]c(=O)c2C1 [54-14] | > 7.30 | > 8.00
4 | CC(C)c1cncc(C2(c3nc4c(c(=O)[nH]3)CN(C(=O)C(O)c3cccc(-c5cccc(C(C)(C)C)c5)c3)CCC4)CC2)c1 (stereo not shown) [55-1] | > 7.30 | > 8.00
5 | CC(C)c1cncc(C2(c3nc4c(c(=O)[nH]3)CN(C(=O)C(O)c3cccc(-c5cccc(OC(F)(F)F)c5)c3)CCC4)CC2)c1 (stereo not shown) [55-2] | > 7.30 | > 8.00
6 | CC(C)c1cncc(C2(c3nc4c(c(=O)[nH]3)CN(C(=O)C(O)c3cccc(-c5cccc(C(F)(F)F)c5)c3)CCC4)CC2)c1 (stereo not shown) [55-3] | > 7.30 | > 8.00
7 | CC(C)c1cncc(C2(c3nc4c(c(=O)[nH]3)CN(C(=O)[C@H](O)c3cccc(-c5cccc(OC(F)(F)F)c5)c3)CCC4)CC2)c1 [55-4] | > 7.30 | > 8.00
8 | CC(C)c1cncc(C2(c3nc4c(c(=O)[nH]3)CN(C(=O)[C@H](O)c3cccc(-c5cccc(C(F)(F)F)c5)c3)CCC4)CC2)c1 [55-5] | > 7.30 | > 8.00
9 | CC(C)c1cncc(C2(c3nc4c(c(=O)[nH]3)CN(C(=O)[C@H](O)c3cccc(-c5cccc(C(C)(C)C)c5)c3)CCC4)CC2)c1 [55-6] | > 7.30 | > 8.00
10 | CC(C)c1cncc(C2(c3nc4c(c(=O)[nH]3)CN(C(=O)[C@H](O)c3cccc(-c5cccc(F)c5)c3)CCC4)CC2)c1 [55-7] | > 7.30 | > 8.52
11 | CC(C)c1cncc(C2(c3nc4c(c(=O)[nH]3)CN(C(=O)[C@H](O)c3cccc(-c5cccc(Cl)c5)c3)CCC4)CC2)c1 [55-8] | > 7.30 | > 8.52
12 | CC(C)c1cncc(C2(c3nc4c(c(=O)[nH]3)CN(C(=O)[C@H](O)c3cccc(-c5ccnc(C(F)(F)F)c5)c3)CCC4)CC2)c1 [55-9] | > 7.30 | > 8.00
13 | O=C([C@H](O)c1cccc(-c2cccc(OC(F)(F)F)c2)c1)N1CCCc2nc(C3(c4cncc(C5CCCCC5)c4)CC3)[nH]c(=O)c2C1 [55-10] | > 7.30 | > 8.00
14 | O=C([C@H](O)c1cccc(-c2cccc(F)c2)c1)N1CCCc2nc(C3(c4cncc(C5CCCCC5)c4)CC3)[nH]c(=O)c2C1 [55-11] | > 7.30 | > 8.00
15 | CC(C)(C)c1cccc(-c2cccc([C@@H](O)C(=O)N3CCCc4nc(C5(c6cncc(C7CCCCC7)c6)CC5)[nH]c(=O)c4C3)c2)c1 [55-12] | > 7.30 | > 8.00
16 | O=C([C@H](O)c1cccc(-c2cccc(Cl)c2)c1)N1CCCc2nc(C3(c4cncc(C5CCCCC5)c4)CC3)[nH]c(=O)c2C1 [55-13] | > 7.30 | > 8.00
17 | O=C([C@H](O)c1cccc(-c2cccc(C(F)(F)F)c2)c1)N1CCCc2nc(C3(c4cncc(C5CCCCC5)c4)CC3)[nH]c(=O)c2C1 [55-14] | > 7.30 | > 8.00
18 | O=C(C(O)c1cccc(-c2cccc(OC(F)(F)F)c2)c1)N1CCCc2nc(C3(c4cncc(-c5ccccc5)c4)CC3)[nH]c(=O)c2C1 (stereo not shown) [56-1] | > 7.30 | > 8.52
19 | O=C(C(O)c1cccc(-c2cccc(C(F)(F)F)c2)c1)N1CCCc2nc(C3(c4cncc(-c5ccccc5)c4)CC3)[nH]c(=O)c2C1 (stereo not shown) [56-2] | > 7.30 | > 8.52
20 | CC(C)(C)c1cccc(-c2cccc(C(O)C(=O)N3CCCc4nc(C5(c6cncc(-c7ccccc7)c6)CC5)[nH]c(=O)c4C3)c2)c1 (stereo not shown) [56-3] | > 7.30 | > 8.52
21 | CC(C)(C)c1cccc(-c2cccc([C@@H](O)C(=O)N3CCCc4nc(C5(c6cncc(-c7ccccc7)c6)CC5)[nH]c(=O)c4C3)c2)c1 [56-4] | > 7.30 | > 8.00
22 | O=C([C@H](O)c1cccc(-c2cccc(C(F)(F)F)c2)c1)N1CCCc2nc(C3(c4cncc(-c5ccccc5)c4)CC3)[nH]c(=O)c2C1 [56-5] | > 7.30 | > 8.00
23 | O=C([C@H](O)c1cccc(-c2cccc(OC(F)(F)F)c2)c1)N1CCCc2nc(C3(c4cncc(-c5ccccc5)c4)CC3)[nH]c(=O)c2C1 [56-6] | > 7.30 | > 8.00
24 | O=C(Cc1cccc(-c2cccc(F)c2)c1)N1CCCc2nc(C3(c4ccccc4)CC3)[nH]c(=O)c2C1 [57-1] | > 7.30 | > 8.00
25 | O=C(Cc1cccc(-c2cccc(OC(F)(F)F)c2)c1)N1CCCc2nc(C3(c4ccccc4)CC3)[nH]c(=O)c2C1 [57-2] | > 7.30 | > 8.52
26 | O=C(Cc1cccc(-c2cccc(C(F)(F)F)c2)c1)N1CCCc2nc(C3(c4ccccc4)CC3)[nH]c(=O)c2C1 [57-3] | > 7.30 | > 8.00
